Results from the CheMixHub viscosity set.

Assay: xn = mol fraction of the nth substance listed
Details: 100 kPa

OCCOCCOCCO + CS(C)=O
viscosity [mPa·s]
Details | 293.15 K | 298.15 K | 303.15 K | 308.15 K | 313.15 K | 318.15 K
x1 = 0.0266 | 2.4 | 2.27 | 2.01 | 1.87 | 1.72 | 1.53
x1 = 0.0547 | 2.72 | 2.64 | 2.36 | 2.14 | 1.97 | 1.74
x1 = 0.0842 | 3.09 | 3.02 | 2.69 | 2.42 | 2.22 | 1.95
x1 = 0.1155 | 3.58 | 3.49 | 3.08 | 2.77 | 2.52 | 2.21
x1 = 0.1485 | 4.15 | 4.03 | 3.55 | 3.17 | 2.87 | 2.5
x1 = 0.1822 | 4.76 | 4.64 | 4.05 | 3.61 | 3.24 | –
x1 = 0.2192 | 5.55 | 5.38 | 4.67 | 4.13 | 3.7 | –
x1 = 0.2575 | 6.44 | 6.21 | 5.36 | 4.7 | 4.19 | –
x1 = 0.3003 | 7.57 | 7.25 | 6.2 | 5.42 | 4.79 | –
x1 = 0.3422 | 8.76 | 8.35 | 7.09 | 6.15 | 5.42 | –
x1 = 0.3888 | 10.2 | 9.68 | 8.15 | 7.03 | 6.15 | –
x1 = 0.4385 | 11.9 | 11.2 | 9.36 | 8.03 | 6.98 | –
x1 = 0.4915 | 13.9 | 13 | 10.8 | 9.17 | 7.91 | –
x1 = 0.5521 | 16.4 | 15.2 | 12.5 | 10.6 | 9.07 | –
x1 = 0.6114 | 19.2 | 17.6 | 14.3 | 12 | 10.2 | –
x1 = 0.6754 | 22.3 | 20.3 | 16.4 | 13.7 | 11.5 | –
x1 = 0.7463 | 26 | 23.6 | 18.9 | 15.7 | 13.1 | –
x1 = 0.8233 | 30.6 | 27.5 | 21.8 | 17.9 | 14.9 | –
x1 = 0.9083 | 35.9 | 32 | 25.2 | 20.5 | 16.9 | –
